According to patent US9271978B2 (Zenith Epigenetics Corp., priority 2012, dated 2016):

What was measured:
[1] = target: T1, second bromodomain of Brd2 (BRD2(2)) (Homo sapiens, UniProt P25440); experiment: Inhibition of tetra-acetylated histone H4 binding to Brd2 bromodomain 2 (TR-FRET); design: key: Active: Compounds with an IC50 value less than 30 μM were deemed to be active.; Not Active: Compounds with an IC50 value less than 30 μM were deemed to be active; conditions: tetra-acetylated histone H4 peptide, active = IC50 <30 μM
T1 construct: made in house; host or cells: E. coli BL21 (DE3)
T1 sequence (P25440 344-453 limits assumed): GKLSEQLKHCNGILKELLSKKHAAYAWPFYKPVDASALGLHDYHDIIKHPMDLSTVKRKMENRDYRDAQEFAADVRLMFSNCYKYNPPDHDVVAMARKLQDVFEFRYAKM
Summary of the method: (§1)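 IC50 values come from dose-response curves of the 665 nm to 620 nm TR-FRET signal decrease, measured after 2 h at room temperature. Reactions contained 200 nM E. coli-expressed His-tagged bromodomain, 25-50 nM biotinylated tetra-acetylated H4 peptide, Eu-streptavidin plus XL665 anti-His antibody, with 30 mM HEPES pH 7.4, 320 mM KF and 0.2% DMSO.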

[2] = test system: human AML MV-4-11 (CRL-9591) cells; experiment: Inhibition of cell proliferation in MV4-11 cells; format: cell-based; design: key: Active: Compounds with an IC50 value less than 30 μM were deemed to be active.; Not Active: Compounds with an IC50 value less than 30 μM were deemed to be active; conditions: human AML MV-4-11 cells, 72 h; active = IC50 <30 μM
Summary of the method: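 IC50 values come from blank-corrected proliferation relative to DMSO controls, read as 490 nm absorbance 3–4 h after CellTiter Aqueous One addition. Before that, cells seeded at 5×10^4/well were exposed for 72 h (37° C, 5% CO2) to triplicate two-fold compound dilutions spanning 30–0.2 μM.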

hIL-6 mRNA = experiment: Inhibition of hIL-6 mRNA transcription in U937 cells; format: cell-based, human; design: key: Active: Compounds with an IC50 value less than 30 μM were deemed to be active.; Not Active: Compounds with an IC50 value less than 30 μM were deemed to be active; conditions: LPS stimulation, active = IC50 <30 μM
Summary of the method: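 Readout is one-step real-time PCR of hIL-6 mRNA, normalized to an internal control and given as fold induction versus control. Cells: PMA (60 ng/mL, 3 days)-differentiated U937 macrophages, compound added 1 h before 1 ug/mL LPS, harvested after 3 h at 37° C.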

c-myc = experiment: Inhibition of c-myc expression in MV4-11 cells (mRNA, real-time PCR); format: cell-based; design: key: Active: Compounds with an IC50 value less than 30 μM were deemed to be active.; Not Active: Compounds with an IC50 value less than 30 μM were deemed to be active; conditions: Human AML MV4-11 cells, 3 h incubation
Summary of the method: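 Duplex RT-qPCR of c-myc against cyclophilin cDNA gave IC50 from a dose–response curve. Input was isolated mRNA from 2.5×10^4 MV4-11 cells after 3 h exposure at 37 °C to compound or 0.1% DMSO vehicle.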

[3] = target: T2, Brd4 bromodomain 1 (BRD4(1)) (Homo sapiens, UniProt O60885); experiment: Inhibition of tetra-acetylated histone H4 binding to Brd4 bromodomain 1 (TR-FRET); design: key: Active: Compounds with an IC50 value less than 30 μM were deemed to be active.; Not Active: Compounds with an IC50 value less than 30 μM were deemed to be active; conditions: tetra-acetylated histone H4 peptide, active = IC50 <30 μM
T2 construct: Illustrative results with the first bromodomain of Brd4; made in house; host or cells: E. coli BL21 (DE3)
Summary of the method: as §1

ApoA-I mRNA = experiment: Up-regulation of hApoA-1 mRNA transcription in Huh7 cells; format: cell-based, human; design: key: Active: Compounds with an EC170 value less than 30 μM were deemed to be active; conditions: 48 h treatment, ApoA-I mRNA by real-time PCR, Active = EC170 less than 30 μM
Summary of the method: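 Huh7 cells treated with compound for 48 h. ApoA-I mRNA was then quantified in captured mRNA by one-step real-time RT-PCR. Fold induction calculated from Ct values relative to the matching DMSO control; EC170 is the concentration for 170% of control expression.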

FRET activity (IC50 <30 μM) BRD2(2) [1] | Cell Proliferation activity (IC50 <30 μM) [2] | IL-6 activity (IC50 <30 μM) (hIL-6 mRNA) | c-myc activity (IC50 <30 μM) (c-myc) | FRET activity (IC50 <30 μM) BRD4(1) [3] | Structure (SMILES) | ApoA-1 activity (EC170 <30 μM) (ApoA-I mRNA)
Active | Active | Active | Not Active | Active | COc1cccc(Cn2nc(-c3cc(OC)c(OC)c(OC)c3)ccc2=O)c1 [Example 119, 2-(3-Methoxybenzyl)-6-(3,4,5-trimethoxyphenyl)pyridazin-3(2H)-one] | Active
Active | Active | Active | Active | Active | CCC(c1ccccc1)n1cc(-c2c(C)noc2C)ccc1=O (stereo not drawn) [Example 43, 5-(3,5-Dimethylisoxazol-4-yl)-1-(1-phenylpropyl)pyridin-2(1H)-one] | Active
Active | Not Active | Active | Active | Active | Cc1noc(C)c1-c1ccc(=O)n(Cc2ccc3[nH]cnc3c2)c1 [Example 146, 1-((1H-benzo[d]imidazol-5-yl)methyl)-5-(3,5-dimethylisoxazol-4-yl)pyridin-2(1H)-one] | Active
Active | Active | Active | Active | Active | Cc1noc(C)c1-c1ccc(=O)n([C@H](C)c2ccccc2)n1 [Example 108, (R)-6-(3,5-Dimethylisoxazol-4-yl)-2-(1-phenylethyl)pyridazin-3(2H)-one] | Active
Active | Active | Active | Active | Active | Cc1noc(C)c1-c1ccc(=O)n(CC2CCC2)c1 [Example 49, 1-(Cyclobutylmethyl)-5-(3,5-dimethylisoxazol-4-yl)pyridin-2(1H)-one] | Active
Active | Not Active | Active | Active | Active | COc1cc(-c2ccc(=O)n(Cc3cccc(NC(C)=O)c3)n2)cc(OC)c1OC [Example 17, N-(3-((6-Oxo-3-(3,4,5-trimethoxyphenyl)pyridazin-1(6H)-yl)methyl)phenyl)acetamide] | Active
Active | Active | Active | Active | Active | Cc1noc(C)c1-c1ccc(=O)n(Cc2ccc3[nH]ncc3c2)c1 [Example 148, 1-((1H-Indazol-5-yl)methyl)-5-(3,5-dimethylisoxazol-4-yl)pyridin-2(1H)-one] | Active
Active | Active | Active | Not Active | Active | Cc1noc(C)c1-c1ccc(=O)n(Cc2ccccc2)n1 [Example 14, 2-Benzyl-6-(3,5-dimethylisoxazol-4-yl)pyridazin-3(2H)-one] | Active
Active | Active | Active | Active | Active | CNc1cc(-c2c(C)noc2C)cn(Cc2ccccc2)c1=O [Example 75, 1-Benzyl-5-(3,5-dimethylisoxazol-4-yl)-3-(methylamino)pyridin-2(1H)-one] | Active
Active | Active | Active | Active | Active | Cc1noc(C)c1-c1ccc(=O)n(Cc2ccc(F)c(Cl)c2)c1 [Example 147, 1-(3-Chloro-4-fluorobenzyl)-5-(3,5-dimethylisoxazol-4-yl)pyridin-2(1H)-one] | Active
Active | Active | Active | Not Active | Active | COc1cc(-c2ccc(=O)n(Cc3ccccc3C#N)c2)cc(OC)c1OC [Example 53, 2-((2-Oxo-5-(3,4,5-trimethoxyphenyl)pyridin-1(2H)-yl)methyl)benzonitrile] | Active
Active | Active | Active | Active | Active | Cc1noc(C)c1-c1ccc(=O)n(C(C)c2ccccc2)n1 (stereo not drawn) [Example 19, 6-(3,5-Dimethylisoxazol-4-yl)-2-(1-phenylethyl)pyridazin-3(2H)-one] | Active
Active | Not Active | Active | Not Active | Active | Cc1noc(C)c1-c1ccc(=O)n(CCOc2ccccc2)c1 [Example 51, 5-(3,5-Dimethylisoxazol-4-yl)-1-(2-phenoxyethyl)pyridin-2(1H)-one] | Active
Active | Active | Active | Active | Active | Cc1noc(C)c1-c1ccc(=O)n(Cc2ccc(F)cc2)c1 [Example 132, 5-(3,5-Dimethylisoxazol-4-yl)-1-(4-fluorobenzyl)pyridin-2(1H)-one] | Active
Active | Not Active | Active | Not Active | Active | COc1ccc(Cn2nc(-c3cc(OC)c(OC)c(OC)c3)ccc2=O)cc1 [Example 117, 2-(4-Methoxybenzyl)-6-(3,4,5-trimethoxyphenyl)pyridazin-3(2H)-one] | Active
Active | Active | Active | Active | Active | Cc1noc(C)c1-c1ccc(=O)n(Cc2ccc(Cl)cn2)c1 [Example 55, 1-((5-Chloropyridin-2-yl)methyl)-5-(3,5-dimethylisoxazol-4-yl)pyridin-2(1H)-one] | Active
Active | Not Active | Active | Not Active | Active | COc1ccc(Nc2ccc(=O)n(Cc3ccccc3)n2)cc1OC [Example 60, 2-Benzyl-6-((3,4-dimethoxyphenyl)amino)pyridazin-3(2H)-one] | Active
